Earlier results on 2 compounds are cited in patent US20070155727A1, “Amide inhibitors of leukotriene A4 hydrolase” (Schering Aktiengessellschaft, priority 2005, published 2007).

pKd: −log10 of the molar value.

In series [1] the target is T1, LTA4-h (Mus musculus, UniProt P24527).
T1 construct: host or cells: mouse blood ex vivo after oral dosing
T1 sequence (P24527 1-611): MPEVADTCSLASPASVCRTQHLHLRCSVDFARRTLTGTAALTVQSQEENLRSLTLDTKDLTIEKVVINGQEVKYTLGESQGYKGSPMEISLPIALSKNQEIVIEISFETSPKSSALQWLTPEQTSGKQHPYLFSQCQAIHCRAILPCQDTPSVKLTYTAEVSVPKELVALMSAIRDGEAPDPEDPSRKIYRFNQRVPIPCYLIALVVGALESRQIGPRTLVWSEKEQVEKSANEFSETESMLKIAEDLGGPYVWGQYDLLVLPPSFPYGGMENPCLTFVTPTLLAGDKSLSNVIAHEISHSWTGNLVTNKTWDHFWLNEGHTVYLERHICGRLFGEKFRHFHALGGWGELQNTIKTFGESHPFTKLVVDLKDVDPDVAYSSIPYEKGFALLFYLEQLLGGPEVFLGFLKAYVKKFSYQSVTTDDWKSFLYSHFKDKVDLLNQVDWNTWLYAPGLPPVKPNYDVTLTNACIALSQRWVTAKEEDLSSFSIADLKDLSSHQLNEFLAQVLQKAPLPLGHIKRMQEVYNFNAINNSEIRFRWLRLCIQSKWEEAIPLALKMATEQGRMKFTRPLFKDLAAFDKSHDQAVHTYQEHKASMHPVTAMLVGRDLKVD
Particulars: oral administration, mouse blood ex vivo.

The test system of the next series is colitis. To be noted: eight weeks of treatment, cotton top tamarins.
The target in series [2] is T2, LTA4-h (Rattus norvegicus, UniProt P30349).
T2 construct: and in rat peritoneum in vivo; host or cells: rat peritoneum in vivo
T2 sequence (P30349 1-611): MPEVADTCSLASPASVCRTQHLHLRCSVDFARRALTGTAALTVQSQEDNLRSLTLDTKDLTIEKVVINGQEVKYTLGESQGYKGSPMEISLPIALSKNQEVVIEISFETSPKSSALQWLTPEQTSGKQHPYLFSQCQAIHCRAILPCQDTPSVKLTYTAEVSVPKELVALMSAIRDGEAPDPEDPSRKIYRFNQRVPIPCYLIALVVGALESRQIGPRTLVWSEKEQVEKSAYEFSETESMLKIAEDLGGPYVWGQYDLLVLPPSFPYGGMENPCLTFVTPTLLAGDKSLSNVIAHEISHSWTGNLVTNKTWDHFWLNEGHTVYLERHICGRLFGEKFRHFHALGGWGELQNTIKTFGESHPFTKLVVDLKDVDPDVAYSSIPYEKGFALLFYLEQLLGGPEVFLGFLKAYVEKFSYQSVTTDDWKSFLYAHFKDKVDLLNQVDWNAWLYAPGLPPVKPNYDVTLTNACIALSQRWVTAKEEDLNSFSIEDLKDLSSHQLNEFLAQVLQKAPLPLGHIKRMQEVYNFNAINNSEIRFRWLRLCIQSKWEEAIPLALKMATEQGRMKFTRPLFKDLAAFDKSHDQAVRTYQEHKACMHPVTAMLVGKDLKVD
To be noted: oral administration, rat peritoneum in vivo.

The next series deals with LTB4 receptor. Particulars: read-out: Kd, additional lower affinity LTB4 receptors; neutrophils.
For the next series, the target named is BLT1. To be noted: human BLT1 and its mouse, rat and guinea pig orthologues.

As for `CN(CCCOc1ccc(Cc2ccccc2)cc1)CCC(=O)O.Cl` [SC57461], the “inhibition of ionophore-induced LTB4 production” value on LTA4-h [1] and at LTA4-h [2] was “caused inhibition of ionophore-induced LTB4 production” throughout. In addition, the colitis symptoms result with colitis is “significantly improved colitis symptoms”.

For `CCCCC/C=C\C[C@@H](O)/C=C/C=C/C=C\[C@@H](O)CCCC(=O)O` [LTB4, Leukotriene B4], the figures for the pKd at LTB4 receptor and on BLT1 were < 7.22 and 9.15 to 10.00, respectively.
